Here are results for one compound from patent US20200405666A9, “TREATMENT OF SYMPTOMS ASSOCIATED WITH FEMALE GASTROPARESIS” (priority 2011, published 2020).

This data set is described as follows: Safety in the clinical study of metoclopramide nasal spray. It is filed as in vivo, human. The settings on record: 10 mg or 14 mg IN four times daily, four weeks. As to the method: The objectives of this study were to evaluate the safety and the effectiveness of two doses of metoclopramide nasal spray solution, 10 mg and 14 mg, compared to placebo in reducing the symptoms of diabetic gastroparesis and to assess the plasma concentrations of two doses of metoclopramide nasal spray in subjects with diabetic gastroparesis following a single dose and at steady state. The aforementioned dosages for the treatment and control of gastroparesis were administered before meals and/or before bed time. Subjects who met the entry criteria after the Washout Period (Day −7 to Day −1) were randomized using an IVRS, to metoclopramide nasal spray 10 mg, 14 mg, or placebo, in roughly equal numbers (approximately 1:1:1) using a predetermined randomization schedule employing permuted blocks. Randomization was preformed centrally.
The study consisted of up to a 23-day Screening Period, a 7-day Washout Period (Day −7 to Day −1) followed by four weeks of study drug treatment. The total duration of each subject's participation was approximately 8 weeks, 287 subjects were enrolled in the study and were randomized to the following groups: Placebo (n=95), 10 mg intranasal (n=96) and 14 mg intranasal (n=96). Of those subjects enrolled, a total of 259 completed the study (˜90%).

As to `CCN(CC)CCNC(=O)c1cc(Cl)c(N)cc1OC` [metoclopramide, -amino-5-chloro-N-(2-(diethylamino)ethyl)-2-methoxybenzamide], the Dose-limiting toxicities result is given as “no dose-limiting toxicities” and the “Reports of tardive dyskinesia” value is “no reports of tardive dyskinesia”.
